Here are results for one compound from patent US20230322812A1, “CRYSTALLINE FORM OF HETEROBICYCLIC COMPOUND” (TAIHO PHARMACEUTICAL CO., LTD., priority 2020, published 2023).

Data set [1] is described as follows: Solid stability of crystal I (storage, chemical purity by HPLC). In kind it is physicochemical. The conditions noted are these: stored at 40° C. (humidity not controlled), 40° C. (humidity 75%) and 60° C. (humidity not controlled) for 4 weeks, all conditions. Here is the method: (iii) High-Performance Liquid Chromatography
Measurement by high-performance liquid chromatography was performed under the following conditions.
Mobile Phase A: 10 mM phos. Buffer (pH6.3)/acetonitrile (95:5)
Mobile Phase B: acetonitrile
Column: Gemini C18 (4.6x 150 mm, 3 μm)/Phenomenex
(§1) Crystal I of compound 1 was stored at 40° C. (humidity is not controlled), 40° C. (humidity 75%), and 60° C. (humidity is not controlled) for 4 weeks. Thereafter, the chemical purity was measured by high-performance liquid chromatography, and the change was 0.5% or less under all conditions.

Data set [2] is described as follows: Differential scanning calorimetry (phase transition on heating). It counts as physicochemical. As to conditions: crystal I of Example 1; temperature increased. As for the experimental part: (ii) Differential Scanning calorimetry Measurement (DSC Measurement)
DSC measurement was performed under the following conditions.
Device: METTLER TOLEDO: DSC1 STAR System
Sample Container: made of aluminum
Temperature Range: 25 to 400° C.
Temperature Increase Rate: 10° C./min
Atmospheric Gas: Nitrogen
Nitrogen Gas Flow: 30 ml/min
as §1
On the technique in general: DSC measures the heat that a sample takes up or gives off during a temperature scan.

A short description of data set [3]: Oral absorbability in rats (plasma concentration of compound 1). In kind it is in vivo. As to conditions: 30 mg/kg, male Sprague Dawley rats. As for the experimental part: Crystal I of compound 1 was suspended in a 0.5% HPMC aqueous solution, and orally administered to male Sprague Dawley rats which were supplied from Charles River Laboratories Japan, Inc. in a dosage of 30 mg/kg. After 1, 2, 4, 6, 8, and 24 hours from administration, blood of each rat was collected from the left jugular vein, and the concentration of compound 1 in plasma was measured.

Data set [4] in a line: Dynamic vapor sorption (DVS) system analysis. It counts as physicochemical. Here is the method:
Dynamic vapor sorption (DVS) system analysis was performed under the following conditions.
Apparatus: VTI SA+(manufactured by TA Instruments Inc.)
Drying temperature: 60° C.
Drying equilibrium: Within the range not exceeding 300 minutes, the sample was confirmed not to decrease by 0.01 wt % in 5 minutes
Measurement temperature: 25° C.
Humidification equilibrium: Within the range not exceeding 120 minutes, the sample was confirmed not to increase by 0.01 wt % in 5 minutes
Relative Humidity Program: An increase by 5% RH from 5% RH to 95% RH and a decrease by 5% RH from 95% RH to 5% RH
A dedicated quartz holder was filled with 10 to 15 mg of crystal I of compound 1, and the weight of each sample at each humidity was continuously measured and recorded under the conditions described above. The device and data processing were handled in accordance with the method and procedure instructed for each device.

The Cmax is the highest concentration seen after dosing. Take `Cn1nc2ccc(-c3c[nH]c4nc(N5[C@H]6CC[C@@H]5[C@H](N)C6)n(C)c(=O)c34)c(Cl)c2c1Cl` (single isomer, unassigned) [Crystal I]: the “change of chemical purity after storage” value in data set [1] is on record as not above 0.5%. Besides, in data set [2], the “phase transition peak in DSC measurement” value is reported as “no peak indicating a phase transition”. In data set [3] (1-24 hours after administration), the “oral absorbability (plasma concentration reached)” value is recorded as “achieved a sufficient concentration that provides a medicinal effect”. The Cmax in data set [3] (rat, suspended in 0.5% HPMC aqueous solution, plasma) is 3.5 µM. The AUC(0-t) in data set [3] (rat, suspended in 0.5% HPMC aqueous solution, plasma, read-out: AUC0-24) amounted to 37 µM·h. The “change in weight due to changes in humidity (DVS)” value in data set [4] (25° C., 5% RH to 95% RH and back to 5% RH) was “no changes in weight”. Also, the “powder X-ray crystal analysis before and after moisture adsorption and desorption” value in data set [4] (before and after DVS moisture adsorption and desorption) was “did not change”.
